How the values were obtained:
[1] = tested on: T lymphocytes; experiment: Inhibition of T cell proliferation to FC1P peptides, tritiated thymidine incorporation (Example 5); format: cell-based; settings: added at 10^−6M or 10^−9M; freshly isolated T lymphocytes cultured with FC1P
Experimental: Freshly isolated T lymphocytes were cultured in vitro with concentrations of FC1P peptides, previously determined as being optimal for the induction of proliferative and/or other responses in these cells. To certain of the culture wells were added, the glucocorticosteroid Dexamethazone or fluticazone, these were added to cultures at dilutions of 10^−6M or 10^−9M. After culture, cells were labelled with tritiated thymidine to enable quantification of DNA synthesis and thus cellular proliferation.

[2] = tested on: peripheral blood mononuclear cells; experiment: Primary proliferative response of freshly isolated PBMC to FC1P (Example 3); format: cell-based, human; settings: 10^5 cells per well, 6 days, cat allergic asthmatics (CAA) compared with non-cat allergic asthmatics (NCA)
Experimental: Freshly isolated peripheral blood mononuclear cells were cultured at 10^5 cells per well for 6 days prior to labelling with tritiated thymidine for measurement of cellular proliferation.

[3] = tested on: volunteer cat-allergic asthmatic; experiment: Intradermal injection of FC1P into a volunteer cat-allergic asthmatic, lung function (Example 4); format: in vivo, human; settings: 40 μg FC1P intradermally into each forearm
Experimental: 40 μg of highly purified FC1P peptides was injected intradermally into each forearm of a volunteer cat-allergic asthmatic. […] The drop in FEV1 was reversed by the administration of β2 agonist and inhaled corticosteroid at 8 hours. The results of this are shown diagrammatically in FIG. 6.

Row | Molecule | inhibition of T cell proliferation to FC1P peptides (tritiated thymidine incorporation) [1] | primary proliferative responses (cellular proliferation, tritiated thymidine) [2] | late-phase asthmatic reaction ([3]; cat-allergic asthmatic) | time of late-phase asthmatic reaction after administration ([3]; cat-allergic asthmatic) | Lung function (quantified as FEV1) ([3]; over the next several hours)
1 | C[C@@H]1C[C@H]2[C@@H]3CCC4=CC(=O)C=C[C@]4(C)[C@@]3(F)[C@@H](O)C[C@]2(C)[C@@]1(O)C(=O)CO [dexamethazone] | inhibition of T cell proliferation | – | – | – | –
2 | C[C@@H]1C[C@H]2[C@@H]3C[C@H](F)C4=CC(=O)C=C[C@]4(C)[C@@]3(F)[C@@H](O)C[C@]2(C)[C@@]1(O)C(=O)SCF [fluticazone] | inhibition of T cell proliferation | – | – | – | –
3 | FC1P: three synthetic peptides derived from the sequence of Fel d I, collectively FC1P (SEQ ID NO:23, 5 and 24) (chain 1 LFLTGTPDEYVEQVAQY; chain 2 EQVAQYKALPVVLENA; chain 3 KALPVVLENARILKNCV; listed as Felis domesticus) | – | greater primary proliferative responses | induced an isolated late-phase asrimatic reaction | approximately three | fell and remained low

— US6737406B1, “Cryptic peptides and method for their identification” (Circassia, Ltd., priority 1996, dated 2004)
